The supplement of paper PMC10307832

What follows are cell lines tested with CC(O)(CS(=O)(=O)c1ccc(F)cc1)C(=O)Nc1ccc(C#N)c(C(F)(F)F)c1 [Bicalutamide] + O=C(c1cc(Cc2n[nH]c(=O)c3ccccc23)ccc1F)N1CCN(C(=O)C2CC2)CC1 [Olaparib] (partner 8 µM) (assay: relative viability (nuclei count vs DMSO), 5 days (fraction); higher = more cells survive). Details: first compound 0.08 µM.
Method in brief: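 Nuclei were stained with Hoechst during a one-step fixation (final 0.05% Triton X-100, 1% formaldehyde, 1 ug/ml Hoechst) carried out 5 days after dosing, then counted on 4× images. The cells, lung cancer lines in 1536-well plates, had been dosed by pin tool the day after seeding with one drug alone or a fixed anchor-drug dose plus five library-drug doses (not always all listed) in √10 steps. Relative viability is the nuclei count in treated wells divided by that in vehicle wells, and each value is the median of duplicate plates.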

Cell Line | relative viability
Calu-6 | 0.667
HCC-366 | 0.361
NCI-H1666 | 0.733
NCI-H647 | 0.571
LK-2 | 0.629
NCI-H2126 | 0.989
NCI-H2342 | 0.524
SK-MES-1 | 0.825
H3255 | 0.564
COR-L23 | 0.319
COR-L 105 | 0.847
IA-LM | 0.959
LOU-NH91 | 0.899
ChaGo-K-1 | 0.4
NCI-H2170 | 0.612
NCI-H3122 | 0.536
HOP-62 | 0.736
HCC-44 | 1.01
A549 | 0.355
SW 900 | 0.798
LU99A | 0.268
BEN | 1.1

Cell Line | relative viability
HARA | 0.871
HCC-78 | 0.709
NCI-H441 | 0.639
LCLC-97TM1 | 0.356
NCI-H2023 | 0.534
A-427 | 0.704
NCI-H460 | 0.439
NCI-H727 | 0.895
NCI-H1734 | 0.623
NCI-H520 | 0.342
NCI-H2405 | 0.947
SW 1573 | 0.542
NCI-H1395 | 0.449
201T | 0.881
NCI-H1915 | 0.25
HCC-827 | 0.63
LXF-289 | 1.04
NCI-H2347 | 0.518
NCI-H1299 | 0.993
NCI-H650 | 0.373
CAL-12T | 0.753
NCI-H1651 | 0.203

Cell Line | relative viability
EPLC-272H | 0.791
NCI-H23 | 0.342
NCI-H1792 | 0.493
NCI-H1355 | 0.711
NCI-H322M | 0.851
NCI-H1437 | 0.613
NCI-H1755 | 0.87
NCI-H2085 | 0.758
HCC-15 | 0.77
NCI-H1793 | 0.799
PC-3 [JPC-3] | 1.22
EKVX | 0.917
LC-2-ad | 0.758
NCI-H1944 | 0.424
NCI-H1975 | 0.81
SK-LU-1 | 0.502
ABC-1 | 0.815
NCI-H358 | 0.664
NCI-H661 | 0.815
RERF-LC-KJ | 0.979

Same assay, conditions: first compound 0.253 µM

Cell Line | relative viability
NCI-H522 | 0.599
NCI-H838 | 0.778
NCI-H1650 | 0.759
EBC-1 | 0.638
NCI-H1703 | 0.387
NCI-H2009 | 0.702
NCI-H1993 | 0.785
PC-14 | 0.3
LCLC-103H | 0.785
NCI-H596 | 0.767
NCI-H2228 | 0.536
EMC-BAC-2 | 0.462
NCI-H2087 | 0.51
Calu-6 | 0.52
HCC-366 | 0.323
NCI-H1666 | 0.814
NCI-H647 | 0.384
LK-2 | 0.524
NCI-H2126 | 0.913
NCI-H2342 | 0.501
SK-MES-1 | 0.711
H3255 | 0.558
COR-L23 | 0.309
COR-L 105 | 0.777
IA-LM | 0.738

Cell Line | relative viability
LOU-NH91 | 0.847
ChaGo-K-1 | 0.423
NCI-H2170 | 0.572
NCI-H3122 | 0.657
HOP-62 | 0.38
HCC-44 | 1.02
A549 | 0.353
SW 900 | 0.721
LU99A | 0.225
BEN | 1.15
HCC-78 | 0.651
NCI-H441 | 0.609
LCLC-97TM1 | 0.363
NCI-H2023 | 0.493
A-427 | 0.692
NCI-H460 | 0.391
NCI-H727 | 0.678
NCI-H1734 | 0.546
NCI-H520 | 0.31
NCI-H2405 | 0.83
SW 1573 | 0.525
NCI-H1395 | 0.483
201T | 0.885
NCI-H1915 | 0.232
HCC-827 | 0.548

Cell Line | relative viability
LXF-289 | 1.08
NCI-H2347 | 0.555
NCI-H1299 | 0.942
NCI-H650 | 0.395
CAL-12T | 0.711
NCI-H1651 | 0.167
EPLC-272H | 0.699
NCI-H23 | 0.3
NCI-H1792 | 0.365
NCI-H1355 | 0.696
NCI-H322M | 0.741
NCI-H1437 | 0.614
NCI-H1755 | 0.817
NCI-H2085 | 0.865
HCC-15 | 0.685
PC-3 [JPC-3] | 1.09
EKVX | 0.861
LC-2-ad | 0.713
NCI-H1944 | 0.388
NCI-H1975 | 0.772
SK-LU-1 | 0.482
ABC-1 | 0.975
NCI-H358 | 0.519
NCI-H661 | 0.768
RERF-LC-KJ | 1.04

Same assay, conditions: first compound 0.8 µM

Cell Line | relative viability
NCI-H522 | 0.788
NCI-H838 | 0.733
NCI-H1650 | 0.899
EBC-1 | 0.746
NCI-H1703 | 0.391
NCI-H2009 | 0.715
NCI-H1993 | 1.17
PC-14 | 0.274
LCLC-103H | 0.835
NCI-H596 | 0.799
NCI-H2228 | 1.16
EMC-BAC-2 | 0.494
NCI-H2087 | 0.75
Calu-6 | 0.586
HCC-366 | 0.444
NCI-H1666 | 0.728
NCI-H647 | 0.591
LK-2 | 1.12
NCI-H2126 | 1.01
NCI-H2342 | 0.491
SK-MES-1 | 0.773
H3255 | 0.554
COR-L23 | 0.294
COR-L 105 | 0.632
IA-LM | 1.08
LOU-NH91 | 0.976

Cell Line | relative viability
ChaGo-K-1 | 0.466
NCI-H2170 | 0.536
NCI-H3122 | 0.712
HOP-62 | 0.388
HCC-44 | 1.02
A549 | 0.42
SW 900 | 1.21
LU99A | 0.259
BEN | 1.26
HARA | 1.22
NCI-H1648 | 0.775
HCC-78 | 0.889
NCI-H441 | 0.626
LCLC-97TM1 | 0.434
NCI-H2023 | 0.495
A-427 | 0.842
NCI-H460 | 0.436
NCI-H727 | 0.614
NCI-H1734 | 0.685
NCI-H520 | 0.335
NCI-H2405 | 0.919
SW 1573 | 0.428
NCI-H1395 | 0.466
201T | 0.846
NCI-H1915 | 0.29
HCC-827 | 0.704

Cell Line | relative viability
LXF-289 | 1.18
NCI-H2347 | 0.62
NCI-H1299 | 0.974
NCI-H650 | 0.401
CAL-12T | 0.769
NCI-H1651 | 0.192
EPLC-272H | 0.695
NCI-H23 | 0.323
NCI-H1792 | 0.39
NCI-H1355 | 0.848
NCI-H322M | 0.789
NCI-H1437 | 0.63
NCI-H1755 | 0.901
NCI-H2085 | 0.773
HCC-15 | 0.769
NCI-H1793 | 1.38
PC-3 [JPC-3] | 1.16
EKVX | 1
LC-2-ad | 0.683
NCI-H1944 | 0.46
NCI-H1975 | 1
SK-LU-1 | 0.633
ABC-1 | 1.21
NCI-H358 | 0.706
NCI-H661 | 0.74
RERF-LC-KJ | 0.962

Same assay, conditions: first compound 2.53 µM

Cell Line | relative viability
NCI-H522 | 0.693
NCI-H838 | 0.522
NCI-H1650 | 0.723
EBC-1 | 0.654
NCI-H1703 | 0.231
NCI-H2009 | 0.667
NCI-H1993 | 1.01
PC-14 | 0.271
LCLC-103H | 0.75
NCI-H596 | 0.844
NCI-H2228 | 0.524
EMC-BAC-2 | 0.397
NCI-H2087 | 0.572
Calu-6 | 0.604
HCC-366 | 0.286
NCI-H1666 | 0.744
NCI-H647 | 0.381
LK-2 | 0.621
NCI-H2126 | 0.859
NCI-H2342 | 0.44
SK-MES-1 | 0.561
H3255 | 0.551
COR-L23 | 0.293
COR-L 105 | 0.662
IA-LM | 0.943
LOU-NH91 | 0.955

Cell Line | relative viability
ChaGo-K-1 | 0.446
NCI-H2170 | 0.645
NCI-H3122 | 0.617
HOP-62 | 0.349
HCC-44 | 1.01
A549 | 0.302
SW 900 | 0.803
LU99A | 0.248
BEN | 1.06
HARA | 0.878
NCI-H1648 | 0.949
HCC-78 | 0.766
NCI-H441 | 0.481
LCLC-97TM1 | 0.507
NCI-H2023 | 0.394
A-427 | 0.707
NCI-H460 | 0.383
NCI-H727 | 0.732
NCI-H1734 | 0.606
NCI-H520 | 0.337
NCI-H2405 | 0.842
SW 1573 | 0.472
NCI-H1395 | 0.429
201T | 0.877
NCI-H1915 | 0.254
HCC-827 | 0.6

Cell Line | relative viability
LXF-289 | 1.01
NCI-H2347 | 0.54
NCI-H1299 | 0.864
NCI-H650 | 0.396
CAL-12T | 0.63
NCI-H1651 | 0.181
EPLC-272H | 0.682
NCI-H23 | 0.341
NCI-H1792 | 0.257
NCI-H1355 | 0.668
NCI-H322M | 0.768
NCI-H1437 | 0.613
NCI-H1755 | 0.857
NCI-H2085 | 0.781
HCC-15 | 0.657
NCI-H1793 | 0.744
PC-3 [JPC-3] | 1.24
EKVX | 0.79
LC-2-ad | 0.697
NCI-H1944 | 0.375
NCI-H1975 | 0.59
SK-LU-1 | 0.486
ABC-1 | 1.01
NCI-H358 | 0.595
NCI-H661 | 0.779
RERF-LC-KJ | 0.768
